From US9359298B2, “Cajanine structure analogous compound, preparation method and use” (INSTITUTE OF MEDICINAL BIOTECHNOLOGY, CHINESE ACADEMY OF …, priority 2011, dated 2016) come the findings set out here.

What all share (assay type): cell-based
Assay [1] has as its system PC12 cells. As to the kind of experiment: Neuroprotective activity assay, rotenone injury to PC12 cells (MTT). Particulars: for viability at 10 µM: Rattus norvegicus, PC-12, 48 h, read-out: rotenone (surviving PC12 cells, MTT 570 nm); for protective effect on rotenone injury to PC12 cells: statement in words. A digest of the protocol: (§1)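 PC12 cells on poly-lysine plated 24 h, then injured 48 h by serum-free DMEM or 4 μM rotenone with 10 μM test compound present during injury. Viability read by MTT (4 h), absorbance 570 nm.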

The subject of assay [2] is Coxsackie virus B6. As to the kind of experiment: Coxsackie virus activity assay (CPE in Vero cells). Particulars: Vero.
For assay [3], the system named is HCV. As to the kind of experiment: Anti-hepatitis C virus (HCV) activity assay (HCV RNA in Huh7.5 cells). Particulars: for EC50: Hepatitis C virus, Huh7.5, 72 h, read-out: HCV EC50; for anti-HCV viral activity: statement in words. On the procedure:
Inoculate Huh7.5 cells into 96-well plates to a density of 3×10^4 cells/cm^2, culture for 24h, infect the cells with 45 IU/cell HCV supernatant, meanwhile, add drug solutions or solvent control for treatment.

Assay [4] concerns Influenza A virus (hanfang359/95). As to the kind of experiment: Determination of anti-influenza virus activity (CPE in MDCK cells). Particulars: for IC50: Influenza A virus, MDCK, 36 h; for anti-influenza virus activities compared with the lead compound cajanine: statement in words.
Assay [5] has as its system PC12 cells. As to the kind of experiment: Neuroprotective activity assay, serum-deprived injury to PC12 cells (MTT). Particulars: for viability at 10 µM: Rattus norvegicus, PC-12, 48 h, read-out: serum-deprived (surviving PC12 cells, MTT 570 nm); for protective effect on serum-deprived injury to PC12 cells: statement in words. The method in brief:
as §1

Assay [6] concerns HIV-1 III B virus. As to the kind of experiment: Anti-HIV activity assay (P24 antigen in MT-4 cells). Particulars: for IC50: Human immunodeficiency virus 1, MT4, 96 h, read-out: HIV IC50; for anti-HIV viral activity: statement in words.
[7] abbreviates: 10 μM test compound, 4 μM rotenone, 48 h, Control 100.0 ± 8.9, Model 73.2 ± 7.8.
Setting [8] is: read-out: COX-B6 IC50, Vero cells, about 100TCID50, CPE, Reed-Muench.
[9] abbreviates: Huh7.5 cells, 72 h, HCV RNA by RT-PCR, Reed-Muench.
The mark [10] stands for this setting: 10 μM test compound, 48 h, Control 100.0 ± 9.2, Model 69.3 ± 4.1.
The mark [11] stands for this setting: MT-4 cells, HIV-1 III B 100TCID50, 96 h, P24 antigen.

In brackets after ≈: the same amount, converted by molar mass. Read-outs that look alike come from different tables or passages of the source.

The IC50 is the midpoint of a concentration-inhibition curve. One may read the EC50 as the concentration that produces a half-maximal response. As for `COc1cc(/C=C/c2ccc(F)cc2)cc(O)c1CC=C(C)C` [Compound 10a, 2-isopentenyl-3-methoxy-5-[(E)-(4′-fluorostyryl)]phenol], the figures for the viability at 10 µM in assay [1] and in assay [5] were 79.8 ± 5.6% and 78.2 ± 4.1%, respectively. Moreover, the IC50 is 6.32 µg/mL (≈ 20.2 µM) in assay [2] (read-out: COX-B6 IC50), over 0.69 µg/mL in assay [4] and 2.02 µg/mL (≈ 6.47 µM) in assay [6]. Besides, in assay [3], the 50% effective concentration (EC50) came out at 1.6 µg/mL (≈ 5.12 µM). In assay [4], the “anti-influenza virus activities compared with the lead compound cajanine” value is “significantly stronger than the lead compound cajanine”.

Turning to `COc1cc(/C=C/c2ccccc2Cl)cc(O)c1CC=C(C)C` [Compound 10b], the figures for the viability at 10 µM in assay [1] and in assay [5] were 74.6 ± 6.3% and 74.8 ± 5.2%, respectively. Besides, the results for the IC50 in assay [2] (read-out: COX-B6 IC50), in assay [4] and in assay [6] were 6.38 µg/mL (≈ 19.4 µM), over 0.23 µg/mL and 0.3 µg/mL (≈ 0.912 µM), respectively. In addition, the EC50 in assay [3] was determined as 0.59 µg/mL (≈ 1.79 µM). The “anti-HCV viral activity” value in assay [3] is listed as “stronger anti-HIV, HCV viral activities”. Besides, the “anti-HIV viral activity” value in assay [6] is recorded as “stronger anti-HIV, HCV viral activities”.

As to `COc1ccc(/C=C/c2cc(O)c(CC=C(C)C)c(OC)c2)cc1` [Compound 10c, 2-isopentenyl-3-methoxy-5-[(E)-4′-methoxystyryl]phenol], the viability at 10 µM in assay [1] (setting [7]) was 80.3 ± 6.2%; in assay [5] (setting [10]), 81.6 ± 2.6%. Further, the “protective effect on rotenone injury to PC12 cells” value in assay [1] is recorded as “the strongest activities”. The IC50 is 2.35 µg/mL (≈ 7.24 µM) in assay [2] (setting [8]), over 6.17 µg/mL in assay [4] and 0.35 µg/mL (≈ 1.08 µM) in assay [6] (setting [11]). In addition, the EC50 in assay [3] (setting [9]) was determined as 7.17 µg/mL (≈ 22.1 µM). Further, in assay [5], the “protective effect on serum-deprived injury to PC12 cells” value was “the strongest activities”.

Turning to `COc1cccc(OC)c1/C=C/c1cc(O)c(CC=C(C)C)c(OC)c1` [Compound 10d, 2-isopentenyl-3-methoxy-5-[(E)-2′,6′-dimethoxy-styryl]phenol], the viability at 10 µM worked out at 78.9 ± 6.1% in assay [1] (setting [7]) and 79.3 ± 5.4% in assay [5] (setting [10]). In addition, the “protective effect on rotenone injury to PC12 cells” value in assay [1] was “the strongest activities”. Moreover, the IC50 in assay [2] (setting [8]) is over 2.05 µg/mL; in assay [4], over 6.17 µg/mL; in assay [6] (setting [11]), 1.05 µg/mL (≈ 2.96 µM). Further, the EC50 in assay [3] (setting [9]) was determined as 2.37 µg/mL (≈ 6.69 µM). In addition, in assay [5], the “protective effect on serum-deprived injury to PC12 cells” value was “the strongest activities”.

`COc1cc(/C=C/c2ccccc2C)cc(O)c1CC=C(C)C` [Compound 10e, 2-isopentenyl-3-methoxy-5-[(E)-2′-methylstyryl]phenol]: the viability at 10 µM in assay [1] (setting [7]) was 70.2 ± 8.1%; in assay [5] (setting [10]), 65.3 ± 2.3%. The IC50 in assay [2] (setting [8]) is 2.35 µg/mL (≈ 7.62 µM); in assay [4], 1.92 µg/mL (≈ 6.23 µM); in assay [6] (setting [11]), 1.33 µg/mL (≈ 4.31 µM). The EC50 in assay [3] (setting [9]) is 1.9 µg/mL (≈ 6.16 µM). Further, the “anti-influenza virus activities compared with the lead compound cajanine” value in assay [4] is listed as “significantly stronger than the lead compound cajanine”.

For the compound `COc1cc(/C=C/c2cccc(C)c2)cc(O)c1CC=C(C)C` [Compound 10f, 2-isopentenyl-3-methoxy-5-[(E)-3′-methylstyryl]phenol], the viability at 10 µM in assay [1] (setting [7]) turned out to be 76.5 ± 8%; in assay [5] (setting [10]), 74.5 ± 6.5%. Further, the IC50 in assay [2] (setting [8]) turned out to be 1.26 µg/mL (≈ 4.09 µM); in assay [4] it was 0.89 µg/mL (≈ 2.89 µM); in assay [6] (setting [11]), 0.46 µg/mL (≈ 1.49 µM). Besides, the EC50 in assay [3] (setting [9]) came out at 0.87 µg/mL (≈ 2.82 µM). Also, in assay [4], the “anti-influenza virus activities compared with the lead compound cajanine” value is recorded as “significantly stronger than the lead compound cajanine”.

Regarding `COc1cc(/C=C/c2ccc(C)cc2)cc(O)c1CC=C(C)C` [Compound 10g, 2-isopentenyl-3-methoxy-5-[(E)-4′-methylstyryl]phenol], the viability at 10 µM in assay [1] (setting [7]) came out at 80.3 ± 3.2%; in assay [5] (setting [10]), 81.3 ± 2.5%. In addition, the IC50 is 1.18 µg/mL (≈ 3.83 µM) in assay [2] (setting [8]), over 6.19 µg/mL in assay [4] and 1.18 µg/mL (≈ 3.83 µM) in assay [6]. Besides, the EC50 in assay [3] (setting [9]) stood at 3.09 µg/mL (≈ 10 µM).

With `CC/C=C/c1cc(O)c(CC=C(C)C)c(OC)c1` [Compound 10h, 2-isopentenyl-3-methoxy-5-[(E)-buten-1-yl]phenol], the viability at 10 µM is 67.8 ± 8.5% in assay [1] (setting [7]) and 65.8 ± 9.2% in assay [5] (setting [10]). The IC50 in assay [2] (setting [8]) is over 2.06 µg/mL; in assay [4], 0.74 µg/mL (≈ 3 µM); in assay [6] (setting [11]), 0.96 µg/mL (≈ 3.9 µM). Also, the EC50 in assay [3] (setting [9]) was determined as 0.74 µg/mL (≈ 3 µM).

As to `COc1cc(/C=C/c2cccs2)cc(O)c1CC=C(C)C` [Compound 10j], the figures for the viability at 10 µM in assay [1] (setting [7]) and in assay [5] (setting [10]) were 84.6 ± 5.2% and 82.3 ± 2.5%, respectively. Further, the “protective effect on rotenone injury to PC12 cells” value in assay [1] is “the strongest activities”. Also, the IC50 is 1.56 µg/mL (≈ 5.19 µM) in assay [2] (setting [8]), over 18.5 µg/mL in assay [4] and 0.66 µg/mL (≈ 2.2 µM) in assay [6] (setting [11]). Further, the EC50 in assay [3] (setting [9]) came to 0.87 µg/mL (≈ 2.9 µM). For the same compound, in assay [3], the “anti-HCV viral activity” value was “stronger anti-HIV, HCV viral activities”. Besides, the “protective effect on serum-deprived injury to PC12 cells” value in assay [5] is on record as “the strongest activities”. The “anti-HIV viral activity” value in assay [6] is on record as “stronger anti-HIV, HCV viral activities”.

Turning to `COc1cc(/C=C/Cc2ccccc2)cc(O)c1CC=C(C)C` [Compound 10k, 2-isopentenyl-3′-methoxy-5-[(E)-3′-phenylpropen-1′-yl]phenol], the viability at 10 µM in assay [1] (setting [7]) is 84.6 ± 2.4%; in assay [5] (setting [10]), 85.6 ± 3.2%. In assay [1], the “protective effect on rotenone injury to PC12 cells” value is “the strongest activities”. Also, the IC50 in assay [2] (setting [8]) is over 2.06 µg/mL; in assay [4] it was 0.89 µg/mL (≈ 2.89 µM); in assay [6] (setting [11]), 1.06 µg/mL (≈ 3.44 µM). For the same compound, the 50% effective concentration (EC50) in assay [3] (setting [9]) was determined as 0.99 µg/mL (≈ 3.21 µM). Moreover, the “anti-influenza virus activities compared with the lead compound cajanine” value in assay [4] is listed as “significantly stronger than the lead compound cajanine”. Moreover, in assay [5], the “protective effect on serum-deprived injury to PC12 cells” value is “the strongest activities”.

For `COc1cc(/C=C/CCc2ccccc2)cc(O)c1CC=C(C)C` [Compound 10l, 2-isopentenyl-3-methoxy-5-[(E)-4′-phenylbuten-1′-yl]phenol], the viability at 10 µM in assay [1] (setting [7]) was 84.6 ± 6.2%; in assay [5] (setting [10]), 81.3 ± 2.9%. Moreover, in assay [1], the “protective effect on rotenone injury to PC12 cells” value is listed as “the strongest activities”. The IC50 is over 18.2 µg/mL in assay [2] (setting [8]), 0.65 µg/mL (≈ 2.02 µM) in assay [4] and 2.2 µg/mL (≈ 6.82 µM) in assay [6] (setting [11]). In assay [3] (setting [9]), the EC50 is 0.95 µg/mL (≈ 2.95 µM). Also, in assay [3], the “anti-HCV viral activity” value is on record as “stronger anti-HIV, HCV viral activities”. Further, the “anti-influenza virus activities compared with the lead compound cajanine” value in assay [4] is recorded as “significantly stronger than the lead compound cajanine”. Besides, the “protective effect on serum-deprived injury to PC12 cells” value in assay [5] is given as “the strongest activities”. Further, the “anti-HIV viral activity” value in assay [6] is recorded as “stronger anti-HIV, HCV viral activities”.

Turning to `COc1cc(/C=C/C=C/c2ccccc2)cc(O)c1CC=C(C)C` [Compound 10m, 2-isopentenyl-3-methoxy-5-[(1′E,3′E)-phenylbutadiene-1′,3′-yl]phenol], the viability at 10 µM in assay [1] (setting [7]) came to 85.3 ± 7.1%; in assay [5] (setting [10]), 89.3 ± 6.4%. Besides, the “protective effect on rotenone injury to PC12 cells” value in assay [1] is listed as “the strongest activities”. In addition, the IC50 in assay [2] (setting [8]) is 6.12 µg/mL (≈ 19.1 µM); in assay [4] it was 2.35 µg/mL (≈ 7.33 µM); in assay [6] (setting [11]) it was 2.33 µg/mL (≈ 7.27 µM). For the same compound, the EC50 in assay [3] (setting [9]) stood at 1.75 µg/mL (≈ 5.46 µM). Also, the “anti-HCV viral activity” value in assay [3] was “stronger anti-HIV, HCV viral activities”. The “anti-influenza virus activities compared with the lead compound cajanine” value in assay [4] is “significantly stronger than the lead compound cajanine”. Also, in assay [5], the “protective effect on serum-deprived injury to PC12 cells” value is “the strongest activities”. The “anti-HIV viral activity” value in assay [6] is “stronger anti-HIV, HCV viral activities”.
